Molecular target: T1, human RXFP1 (Homo sapiens, UniProt Q9HBX9)
T1 construct: expressed in transfected cells
T1 sequence (Q9HBX9 1-757): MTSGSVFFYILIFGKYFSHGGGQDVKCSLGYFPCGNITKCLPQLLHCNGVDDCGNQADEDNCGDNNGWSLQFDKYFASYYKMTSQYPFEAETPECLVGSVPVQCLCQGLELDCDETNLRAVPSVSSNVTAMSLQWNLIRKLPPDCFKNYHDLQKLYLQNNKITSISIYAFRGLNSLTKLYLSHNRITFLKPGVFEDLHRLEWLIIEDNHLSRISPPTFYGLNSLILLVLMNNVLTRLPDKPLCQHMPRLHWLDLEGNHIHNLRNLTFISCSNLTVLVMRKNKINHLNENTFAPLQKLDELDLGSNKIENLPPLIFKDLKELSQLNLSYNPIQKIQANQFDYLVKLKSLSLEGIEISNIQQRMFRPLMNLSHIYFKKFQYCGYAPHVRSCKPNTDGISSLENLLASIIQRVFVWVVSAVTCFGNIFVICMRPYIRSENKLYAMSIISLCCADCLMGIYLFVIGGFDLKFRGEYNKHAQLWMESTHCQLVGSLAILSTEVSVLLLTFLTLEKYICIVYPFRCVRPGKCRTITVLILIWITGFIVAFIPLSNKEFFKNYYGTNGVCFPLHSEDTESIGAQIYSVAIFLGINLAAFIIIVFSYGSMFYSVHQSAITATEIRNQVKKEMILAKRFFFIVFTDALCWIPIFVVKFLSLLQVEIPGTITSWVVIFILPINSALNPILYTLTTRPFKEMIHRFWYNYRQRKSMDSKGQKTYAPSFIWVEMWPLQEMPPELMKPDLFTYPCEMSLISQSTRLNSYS
Assay: hRXFP1 HEK293 cAMP assay (HTRF)
Assay type: cell-based
Conditions: HEK293 cells stably expressing human RXFP1; 30 min at rt; intracellular cAMP by HTRF
Method in brief: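 HEK293 cells stably expressing human RXFP1 treated 30 min at rt with compound (0.010 nM to 50 μM, 2% DMSO) in HBSS/HEPES buffer with 0.5 mM IBMX. Intracellular cAMP measured by HTRF (665/590 nm ratio) against a cAMP standard curve; potency fitted by 4-parameter logistic.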

| SMILES | EC50 |
| --- | --- |
| COc1cc(C)c(C(=O)NCC2(S(C)(=O)=O)CC2)cc1C(=O)Nc1c(C(=O)Nc2ccc(F)c(C(F)(F)F)c2)sc2cc(C(F)(F)F)ccc12 [Example 187, N1-(2-((4-fluoro-3-(trifluoromethyl)phenyl)carbamoyl)-6-(trifluoromethyl)benzo[b]thiophen-3-yl)-6-methoxy-4-methyl-N3-((1-(methylsulfonyl)cyclopropyl)methyl) isophthalamide] | 328 nM |
| COc1ccc(S(=O)(=O)N2CCC[C@@H](NC(=O)CCO)C2)cc1C(=O)Nc1c(C(=O)Nc2ccc(F)c(C(F)(F)F)c2)sc2cc(C(F)(F)F)ccc12 [Example 189, (R)-N-(4-fluoro-3-(trifluoromethyl)phenyl)-3-(5-((3-(3-hydroxy-propanamido)piperidin-1-yl)sulfonyl)-2-methoxy-benzamido)-6-(trifluoromethyl) benzo[b] thiophene-2-carboxamide] | 491 nM |
| COc1ccc(C(=O)NC(C)(C)CO)cc1C(=O)Nc1c(C(=O)Nc2ccc(F)c(C(F)(F)F)c2)sc2cc(C(F)(F)F)ccc12 [Example 190, N3-(2-((4-fluoro-3-(trifluoromethyl)phenyl)carbamoyl)-6-(trifluoromethyl)benzo[b]thiophen-3-yl)-N1-(1-hydroxy-2-methylpropan-2-yl)-4-methoxy-isophthalamide] | 689 nM |
| COc1ccc(C2CC3CCC(C2)N3CC(N)=O)cc1C(=O)Nc1c(C(=O)Nc2ccc(F)c(C(F)(F)F)c2)sc2cc(C(F)(F)F)ccc12 (stereo not drawn) [Example 192, 3-(5-(8-(2-amino-2-oxoethyl)-8-azabicyclo[3.2.1]octan-3-yl)-2-methoxy-benzamido)-N-(4-fluoro-3-(trifluoromethyl)phenyl)-6-(trifluoromethyl) benzo[b] thiophene-2-carboxamide] | 889 nM |
| COc1ccc(C2CC3CCC(C2)N3CCS(C)(=O)=O)cc1C(=O)Nc1c(C(=O)Nc2ccc(F)c(C(F)(F)F)c2)sc2cc(C(F)(F)F)ccc12 (stereo not drawn) [Example 193, N-(4-fluoro-3-(trifluoromethyl)phenyl)-3-(2-methoxy-5-(8-(2-(methylsulfonyl)ethyl)-8-azabicyclo[3.2.1]octan-3-yl)benzamido)-6-(trifluoromethyl) benzo[b] thiophene-2-carboxamide] | 300 nM |
| COc1ccc(N2CCC3(CN(CCS(C)(=O)=O)C3)C2)cc1C(=O)Nc1c(C(=O)Nc2ccc(F)c(C(F)(F)F)c2)sc2cc(C(F)(F)F)ccc12 [Example 194, N-(4-fluoro-3-(trifluoromethyl)phenyl)-3-(2-methoxy-5-(2-(2-(methylsulfonyl)ethyl)-2,6-diazaspiro[3.4]octan-6-yl)benzamido)-6-(trifluoromethyl) benzo[b] thiophene-2-carboxamide] | 746 nM |
| COc1ccc(C(=O)N2CC[C@@H](O)C2)cc1C(=O)Nc1c(C(=O)Nc2ccc(F)c(C(F)(F)F)c2)sc2cc(C3CC3)ncc12 [Example 195, (R)-6-cyclopropyl-N-(4-fluoro-3-(trifluoromethyl)phenyl)-3-(5-(3-hydroxy-pyrrolidine-1-carbonyl)-2-methoxy-benzamido) thieno[3,2-c] pyridine-2-carboxamide] | 910 nM |
| COc1ccc(C(=O)NCC2(S(C)(=O)=O)CC2)cc1C(=O)Nc1c(C(=O)Nc2ccc(F)c(C(F)(F)F)c2)sc2cc(Cl)ncc12 [Example 196, N3-(6-chloro-2-((4-fluoro-3-(trifluoromethyl)phenyl)carbamoyl)thieno[3,2-c]pyridin-3-yl)-4-methoxy-N1-((1-(methylsulfonyl)cyclopropyl)methyl) isophthalamide] | 70 nM |
| COc1ccc(C(=O)NCCS(C)(=O)=O)cc1C(=O)Nc1c(C(=O)Nc2ccc(F)c(C(F)(F)F)c2)sc2cc(Cl)ncc12 [Example 197, N3-(6-chloro-2-((4-fluoro-3-(trifluoromethyl)phenyl)carbamoyl)thieno[3,2-c]pyridin-3-yl)-4-methoxy-N1-(2-(methylsulfonyl)ethyl) isophthalamide] | 450 nM |
| COc1ccc(C(=O)N2CC[C@@H](O)C2)cc1C(=O)Nc1c(C(=O)Nc2ccc(F)c(C(F)(F)F)c2)sc2cc(Cl)ncc12 [Example 199, (R)-6-chloro-N-(4-fluoro-3-(trifluoromethyl)phenyl)-3-(5-(3-hydroxypyrrolidine-1-carbonyl)-2-methoxy-benzamido) thieno[3,2-c]pyridine-2-carboxamide] | 690 nM |
| COc1ccc(CCCO)cc1C(=O)Nc1c(C(=O)Nc2ccc(F)c(C(F)(F)F)c2)sc2cc(Cl)ncc12 [Example 200, 6-chloro-N-(4-fluoro-3-(trifluoromethyl)phenyl)-3-(5-(3-hydroxypropyl)-2-methoxy-benzamido) thieno[3,2-c]pyridine-2-carboxamide] | 400 nM |
| COc1ccc(-c2cc(C(=O)O)ccc2F)cc1C(=O)Nc1c(C(=O)Nc2ccc(F)c(C(F)(F)F)c2)sc2cc(Cl)ncc12 [Example 201, 3′-((6-chloro-2-((4-fluoro-3-(trifluoromethyl)phenyl)carbamoyl)thieno[3,2-c]pyridin-3-yl)carbamoyl)-6-fluoro-4′-methoxy-[1,1′-biphenyl]-3-carboxylic acid] | 320 nM |
| COc1ccc(C#CCO)cc1C(=O)Nc1c(C(=O)Nc2ccc(F)c(C(F)(F)F)c2)sc2cc(C3CC3)ncc12 [Example 202, 6-cyclopropyl-N-(4-fluoro-3-(trifluoromethyl)phenyl)-3-(5-(3-hydroxyprop-1-yn-1-yl)-2-methoxy-benzamido) thieno[3,2-c]pyridine-2-carboxamide] | 1010 nM |

Other lines, results leading:

| EC50 | SMILES |
| --- | --- |
| 145 nM | COc1ccc(C(=O)N2CC(C)(O)C2)cc1C(=O)Nc1c(C(=O)Nc2ccc(F)c(C(F)(F)F)c2)sc2cc(C(F)(F)F)ccc12 [Example 180, N-(4-fluoro-3-(trifluoromethyl)phenyl)-3-(5-(3-hydroxy-3-methylazetidine-1-carbonyl)-2-methoxy-benzamido)-6-(trifluoromethyl) benzo[b] thiophene-2-carboxamide] |
| 544 nM | COc1ccc(C(=O)N2CC3(COC3)C2)cc1C(=O)Nc1c(C(=O)Nc2ccc(F)c(C(F)(F)F)c2)sc2cc(C(F)(F)F)ccc12 [Example 181, N-(4-fluoro-3-(trifluoromethyl)phenyl)-3-(2-methoxy-5-(2-oxa-6-azaspiro[3.3]heptane-6-carbonyl)benzamido)-6-(trifluoromethyl) benzo[b] thiophene-2-carboxamide] |
| 357 nM | COc1cc(F)c(C(=O)N2CC(C(C)(C)O)C2)cc1C(=O)Nc1c(C(=O)Nc2ccc(F)c(C(F)(F)F)c2)sc2cc(C(F)(F)F)ccc12 [Example 182, N-(4-fluoro-3-(trifluoromethyl)phenyl)-3-(4-fluoro-5-(3-(2-hydroxypropan-2-yl)azetidine-1-carbonyl)-2-methoxy-benzamido)-6-(trifluoromethyl) benzo[b] thiophene-2-carboxamide] |
| 823 nM | COc1cc(F)c(C(=O)N2CC[C@@H](O)C2)cc1C(=O)Nc1c(C(=O)Nc2ccc(F)c(C(F)(F)F)c2)sc2cc(C(F)(F)F)ccc12 [Example 183, (R)-N-(4-fluoro-3-(trifluoromethyl)phenyl)-3-(4-fluoro-5-(3-hydroxy-pyrrolidine-1-carbonyl)-2-methoxy-benzamido)-6-(trifluoromethyl) benzo[b] thiophene-2-carboxamide] |
| 349 nM | COc1cc(F)c(C(=O)N2CCC(O)CC2)cc1C(=O)Nc1c(C(=O)Nc2ccc(F)c(C(F)(F)F)c2)sc2cc(C(F)(F)F)ccc12 [Example 184, N-(4-fluoro-3-(trifluoromethyl)phenyl)-3-(4-fluoro-5-(4-hydroxypiperidine-1-carbonyl)-2-methoxy-benzamido)-6-(trifluoromethyl) benzo[b] thiophene-2-carboxamide] |
| 736 nM | COc1cc(F)c(C(=O)N2CC3(COC3)C2)cc1C(=O)Nc1c(C(=O)Nc2ccc(F)c(C(F)(F)F)c2)sc2cc(C(F)(F)F)ccc12 [Example 185, 3-(4-fluoro-2-methoxy-5-(2-oxa-6-azaspiro[3.3]heptane-6-carbonyl)benzamido)-N-(4-fluoro-3-(trifluoromethyl)phenyl)-6-(trifluoromethyl) benzo[b] thiophene-2-carboxamide] |
| 102 nM | COc1cc(F)c(C(=O)NCC2(S(C)(=O)=O)CC2)cc1C(=O)Nc1c(C(=O)Nc2ccc(F)c(C(F)(F)F)c2)sc2cc(C(F)(F)F)ccc12 [Example 186, 4-fluoro-N1-(2-((4-fluoro-3-(trifluoromethyl)phenyl)carbamoyl)-6-(trifluoromethyl)benzo[b]thiophen-3-yl)-6-methoxy-N3-((1-(methylsulfonyl)cyclopropyl)methyl) isophthalamide] |
| 346 nM | COc1ccc(C(=O)N2CC(O)C2)cc1C(=O)Nc1c(C(=O)Nc2ccc(F)c(C(F)(F)F)c2)sc2cc(C(F)(F)F)ccc12 [Example 191, N-(4-fluoro-3-(trifluoromethyl)phenyl)-3-(5-(3-hydroxyazetidine-1-carbonyl)-2-methoxy-benzamido)-6-(trifluoromethyl) benzo[b] thiophene-2-carboxamide] |
